The text below walks through data of ChEMBL document CHEMBL1137314, “Small-molecule inhibitors of the MDM2-p53 protein-protein interaction based on an isoindolinone scaffold” (J Med Chem, 2006).

Activity calls are given as the source filed them. The calls are words filed in the database; no cut-off is given here. Some results are limits rather than exact numbers.

Chain of Tumour suppressor p53/oncoprotein Mdm2 (P04637 whole entry): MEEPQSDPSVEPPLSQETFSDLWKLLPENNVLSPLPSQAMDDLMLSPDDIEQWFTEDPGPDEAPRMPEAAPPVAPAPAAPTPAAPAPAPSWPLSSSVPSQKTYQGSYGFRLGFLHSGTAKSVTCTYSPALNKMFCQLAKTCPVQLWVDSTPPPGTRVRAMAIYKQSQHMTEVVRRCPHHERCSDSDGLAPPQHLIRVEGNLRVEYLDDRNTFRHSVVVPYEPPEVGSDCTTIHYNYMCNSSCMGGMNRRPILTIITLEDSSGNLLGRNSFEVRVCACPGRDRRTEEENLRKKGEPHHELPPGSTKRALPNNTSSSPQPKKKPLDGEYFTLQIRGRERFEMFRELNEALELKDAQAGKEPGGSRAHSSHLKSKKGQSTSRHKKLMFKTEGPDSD
Chain of Tumour suppressor p53/oncoprotein Mdm2 (Q00987 whole entry): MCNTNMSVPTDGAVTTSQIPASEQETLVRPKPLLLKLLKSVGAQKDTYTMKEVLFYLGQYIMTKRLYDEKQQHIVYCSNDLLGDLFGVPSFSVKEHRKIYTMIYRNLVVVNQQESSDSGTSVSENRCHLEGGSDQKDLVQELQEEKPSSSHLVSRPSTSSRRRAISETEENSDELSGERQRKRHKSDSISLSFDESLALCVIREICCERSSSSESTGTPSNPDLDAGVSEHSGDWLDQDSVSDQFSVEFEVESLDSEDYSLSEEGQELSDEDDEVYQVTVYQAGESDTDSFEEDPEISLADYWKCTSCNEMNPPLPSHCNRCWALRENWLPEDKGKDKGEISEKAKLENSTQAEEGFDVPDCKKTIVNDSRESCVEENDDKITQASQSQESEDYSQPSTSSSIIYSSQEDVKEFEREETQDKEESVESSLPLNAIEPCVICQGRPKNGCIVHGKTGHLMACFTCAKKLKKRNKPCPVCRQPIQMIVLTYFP

The test system of the first experiment is SJSA-1. Nature of the experiment: Increase of p21 protein level in SJSA cell line by Western blot analysis. The class given is functional, cell-based. To be noted: Homo sapiens.
As to `O=C1c2ccccc2C(OCCCO)(c2ccc(Cl)cc2)N1Cc1ccccc1` (stereo unspecified), the Activity result was “Dose-dependent effect”.
`CCCN1C(=O)c2ccccc2C1(OCc1cc(OC)c(O)c(OC)c1)c1ccc(Cl)cc1` (stereo unspecified): the Activity entry is “Dose-dependent effect”.

A further experiment deals with Tumour suppressor p53/oncoprotein Mdm2 (Homo sapiens) (UniProt P04637+Q00987). Nature of the experiment: Induction of p53 dependent transcription in SJSA cell line by reporter gene assay. The class given is functional, cell-based. The conditions noted are these: SJSA-1. On the technique in general: In a reporter assay the amount or activity of a reporter protein is the signal.
Chain of Tumour suppressor p53/oncoprotein Mdm2 (Homo sapiens) (P04637 whole entry, looked up): as the sequence (P04637 whole entry) above
Chain of Tumour suppressor p53/oncoprotein Mdm2 (Homo sapiens) (Q00987 whole entry, looked up): as the sequence (Q00987 whole entry) above
Consider `O=C1c2ccccc2C(OCCCO)(c2ccc(Cl)cc2)N1Cc1ccccc1` (stereo unspecified), for which the Activity entry was “Dose-dependent effect”.
On to `CCCN1C(=O)c2ccccc2C1(OCc1cc(OC)c(O)c(OC)c1)c1ccc(Cl)cc1` (stereo unspecified), for which the Activity entry is “Dose-dependent effect”.

The subject of the next experiment is SJSA-1. Kind of experiment: Increase of MDM2 protein level in SJSA cell line by Western blot analysis. The class given is functional, cell-based. To be noted: Homo sapiens. For orientation: In western blotting, separated proteins are transferred to a membrane and probed.
Regarding `O=C1c2ccccc2C(OCCCO)(c2ccc(Cl)cc2)N1Cc1ccccc1` (stereo unspecified), the Activity result was “Dose-dependent effect”.
Regarding `CCCN1C(=O)c2ccccc2C1(OCc1cc(OC)c(O)c(OC)c1)c1ccc(Cl)cc1` (stereo unspecified), the Activity result is “Dose-dependent effect”.

A further experiment deals with SJSA-1. Nature of the experiment: Increase of p53 protein level in SJSA cell line by Western blot analysis. To be noted: Homo sapiens. The class given is functional, cell-based.
With `O=C1c2ccccc2C(OCCCO)(c2ccc(Cl)cc2)N1Cc1ccccc1` (stereo unspecified), the outcome was inactive.
With `CCCN1C(=O)c2ccccc2C1(OCc1cc(OC)c(O)c(OC)c1)c1ccc(Cl)cc1` (stereo unspecified), the outcome was inactive.

The next experiment concerns the target Tumour suppressor p53/oncoprotein Mdm2 (Homo sapiens, UniProt Q00987). Kind of experiment: Inhibition of p53-MDM2 interaction by ELISA. The class given is protein assay.
Details: not given
By IC50 is commonly meant the point on the concentration scale where inhibition reaches its midpoint. Higher therefore signals lower potency. `O=C1c2ccccc2C(OCc2ccc(Cl)c([N+](=O)[O-])c2)(c2ccccc2)N1Cc1ccccc1` (stereo unspecified): the half-inhibitory concentration (IC50) was 206 µM.
In the case of `O=C1c2ccccc2C(=O)N1CCCOC1(c2ccccc2)c2ccccc2C(=O)N1Cc1ccccc1` (stereo unspecified), the IC50 stood at 189 µM.
For the compound `COCCOC1(c2ccccc2)c2ccccc2C(=O)N1Cc1ccccc1` (stereo unspecified), the midpoint of inhibition, the IC50, lay at 490 µM.
On to `CCCCc1ncc(COC2(c3ccccc3)c3ccccc3C(=O)N2Cc2ccccc2)[nH]1` (stereo unspecified), for which the half-inhibitory concentration (IC50) worked out at 78 µM.
As for `CCCN1C(=O)c2ccccc2C1(OCc1cc2c(cc1[N+](=O)[O-])OCO2)c1ccc(C(C)(C)C)cc1` (stereo unspecified), the half-inhibitory concentration (IC50) is 70.2 µM.
Regarding `CCCOC1(c2ccccc2)c2ccccc2C(=O)N1CCO` (stereo unspecified), the IC50 is more than 500 µM.
The compound `CCCN1C(=O)c2ccccc2C1(OCCNC(=O)c1ccccc1O)c1ccc(C(C)(C)C)cc1` (stereo unspecified) yielded an IC50 of 70.1 µM.
The same measure, in the same setting: the figure for `CCCOC1(c2ccccc2)c2ccccc2C(=O)N1[C@@H](CCCCN)C(=O)OC` (stereo partly specified) is 79 µM; for `Cc1ccc([N+](=O)[O-])c(COC2(c3ccccc3)c3ccccc3C(=O)N2Cc2ccccc2)c1` (stereo unspecified) it is 232 µM; for `O=C1c2ccccc2C(OCc2cccc([N+](=O)[O-])c2)(c2ccccc2)N1Cc1ccccc1` (stereo unspecified) it is 284 µM.
`C=C(C)C(=O)OCCNC1(c2ccccc2)c2ccccc2C(=O)N1Cc1ccccc1` (stereo unspecified) yielded an IC50 of 353 µM.
The compound `COC(=O)C(Cc1ccc(O)cc1)N1C(=O)c2ccccc2C1(OCCn1c([N+](=O)[O-])cnc1C)c1ccccc1` (stereo unspecified) yielded an IC50 of 275 µM.
On the same count and under the same terms, the result for `COc1ccc(CCOC2(c3ccccc3)c3ccccc3C(=O)N2Cc2ccccc2)cc1OC` (stereo unspecified) reads 311 µM; that for `CCCN1C(=O)c2ccccc2C1(OCCN1CCNC1=O)c1ccc(C(C)(C)C)cc1` (stereo unspecified), 74.3 µM; that for `COC(=O)CCNC1(c2ccccc2)c2ccccc2C(=O)N1Cc1ccccc1` (stereo unspecified), more than 500 µM.
Same read-out and setting: the figure for `CCCOC1(c2ccccc2)c2ccccc2C(=O)N1CCC` (stereo unspecified) is more than 200 µM; for `O=C1c2ccccc2C(OCc2cccc(O)c2)(c2ccccc2)N1Cc1ccccc1` (stereo unspecified) it is 58 µM.
Turning to `CCCOC1(c2ccccc2)c2ccccc2C(=O)N1Cc1ccc(OC)cc1` (stereo unspecified), the IC50 came to 413 µM.
Consider `C=CC(=O)OCCOC1(c2ccccc2)c2ccccc2C(=O)N1Cc1ccccc1` (stereo unspecified), for which half-maximal inhibition (IC50) required 439 µM.
`NC(=O)COC1(c2ccccc2)c2ccccc2C(=O)N1Cc1ccccc1` (stereo unspecified) showed an IC50 of more than 500 µM.
The same measure, in the same setting: the figure for `O=C1c2ccccc2C(NCC(O)c2ccc(O)cc2)(c2ccccc2)N1Cc1ccccc1` (stereo unspecified) is 227 µM; for `O=C1c2ccccc2C(OCCNC(=O)C(F)(F)F)(c2ccccc2)N1Cc1ccccc1` (stereo unspecified) it is 409 µM.
The compound `COC(=O)C(Cc1ccc(O)cc1)N1C(=O)c2ccccc2C1(OCCOC(C)=O)c1ccccc1` (stereo unspecified) came in with a half-inhibitory concentration (IC50) of 380 µM.
Same read-out and setting: the result for `Cc1cccc(N(CCC#N)CCOC2(c3ccccc3)c3ccccc3C(=O)N2Cc2ccccc2)c1` (stereo unspecified) reads 243 µM.
Consider `CC(=O)NCCOC1(c2ccccc2)c2ccccc2C(=O)N1Cc1ccccc1` (stereo unspecified), for which the IC50 was determined as 281 µM.
`COC(=O)[C@@H](C)COC1(c2ccccc2)c2ccccc2C(=O)N1Cc1ccccc1` (stereo partly specified) gave an IC50 of 330 µM.
The compound `O=C1c2ccccc2C(OC/C=C/c2ccccc2)(c2ccccc2)N1Cc1ccccc1` (stereo unspecified) had an IC50 of 334 µM.
Regarding `O=C1CCCN1CCOC1(c2ccccc2)c2ccccc2C(=O)N1Cc1ccccc1` (stereo unspecified), half-maximal inhibition (IC50) was put at 393 µM.
Turning to `CCCN1C(=O)c2ccccc2C1(OCCS(C)(=O)=O)c1ccc(C(C)(C)C)cc1` (stereo unspecified), the IC50 stood at 290 µM.
Same read-out and setting: the figure for `CCCNC1(c2ccccc2)c2ccccc2C(=O)N1Cc1ccccc1` (stereo unspecified) is 200 µM.
Same read-out and setting: the result for `O=C1c2ccccc2C(OCCN2CCOCC2)(c2ccccc2)N1Cc1ccccc1` (stereo unspecified) reads more than 500 µM; that for `CCCOC1(c2ccccc2)c2ccccc2C(=O)N1[C@H](C(=O)OC)c1ccc(O)cc1` (stereo partly specified), 90 µM.
The compound `O=C1c2ccccc2C(N[C@@H](CO)[C@@H](O)c2ccccc2)(c2ccccc2)N1Cc1ccccc1` (stereo partly specified) came in with an IC50 of 85 µM.
For the compound `CC(NC1(c2ccccc2)c2ccccc2C(=O)N1Cc1ccccc1)C(O)c1ccc(O)cc1` (stereo unspecified), half-maximal inhibition (IC50) required 185 µM.
In turn, `CCCOC1(c2ccccc2)c2ccccc2C(=O)N1CCCC(OC)OC` (stereo unspecified) had a half-maximal inhibitory concentration (IC50) of 70 µM.
In the case of `COC(=O)C(Cc1ccc(O)cc1)N1C(=O)c2ccccc2C1(OCCN(CCC#N)c1ccccc1)c1ccccc1` (stereo unspecified), half-maximal inhibition (IC50) required 88 µM.
Regarding `O=C1c2ccccc2C(NCCO)(c2ccccc2)N1Cc1ccccc1` (stereo unspecified), the 50% inhibitory concentration (IC50) is more than 500 µM.
Still for that read-out and setting: the result for `CCCOC1(c2ccccc2)c2ccccc2C(=O)N1Cc1ccccc1` (stereo unspecified) reads more than 200 µM; that for `O=C1c2ccccc2C(=O)N1CCOC1(c2ccccc2)c2ccccc2C(=O)N1Cc1ccccc1` (stereo unspecified), 152 µM.
In turn, `C=CCNC(=S)NCCOC1(c2ccccc2)c2ccccc2C(=O)N1Cc1ccccc1` (stereo unspecified) registered a half-inhibitory concentration (IC50) of 408 µM.
The compound `O=C1CCC(=O)N1CCOC1(c2ccccc2)c2ccccc2C(=O)N1Cc1ccccc1` (stereo unspecified) gave a half-inhibitory concentration (IC50) of 284 µM.
In the case of `N#CCCNC1(c2ccccc2)c2ccccc2C(=O)N1Cc1ccccc1` (stereo unspecified), the half-inhibitory concentration (IC50) is 190 µM.
Compound `O=C1c2ccccc2C(OCCS(=O)(=O)O)(c2ccccc2)N1Cc1ccccc1` (stereo unspecified) showed a half-maximal inhibitory concentration (IC50) of 345 µM.
On to `COC(=O)COC1(c2ccccc2)c2ccccc2C(=O)N1Cc1ccccc1` (stereo unspecified), for which the half-inhibitory concentration (IC50) is more than 500 µM.
Still for that read-out and setting: the result for `O=C1c2ccccc2C(OCc2ccco2)(c2ccccc2)N1Cc1ccccc1` (stereo unspecified) reads more than 500 µM; that for `CC(=O)NCCNC1(c2ccccc2)c2ccccc2C(=O)N1Cc1ccccc1` (stereo unspecified), more than 500 µM.
Same read-out and setting: the result for `CCCN1C(=O)c2ccccc2C1(OCc1[nH]cnc1C)c1ccc(C(C)(C)C)cc1` (stereo unspecified) reads 64.3 µM; that for `O=C1c2ccccc2C(OCCc2ccccc2)(c2ccccc2)N1Cc1ccccc1` (stereo unspecified), more than 500 µM.
On to `O=C(NCCOC1(c2ccccc2)c2ccccc2C(=O)N1Cc1ccccc1)c1ccncc1` (stereo unspecified), for which the half-maximal inhibitory concentration (IC50) is 278 µM.
`CCOC(=O)CCC(NC1(c2ccccc2)c2ccccc2C(=O)N1Cc1ccccc1)C(=O)OCC` (stereo unspecified) registered an IC50 of more than 500 µM.
`COc1ccc([C@@H](O)COC2(c3ccccc3)c3ccccc3C(=O)N2Cc2ccco2)cc1` (stereo partly specified) came in with a 50% inhibitory concentration (IC50) of 181 µM.
In turn, `C=C(C)C(=O)OCCN1C(=O)c2ccccc2C1(N[C@@H](CO)[C@@H](O)c1ccccc1)c1ccccc1` (stereo partly specified) registered an IC50 of 103 µM.
`COc1ccc([C@@H](O)COC2(c3ccccc3)c3ccccc3C(=O)N2CCCO)cc1` (stereo partly specified) gave an IC50 of 326 µM.
Consider `O=C1c2ccccc2C(NC(CO)C(O)c2ccccc2)(c2ccccc2)N1Cc1ccccc1` (stereo unspecified), for which the half-maximal inhibitory concentration (IC50) was 85 µM.
In the case of `CCCN1C(=O)c2ccccc2C1(OCc1cc([N+](=O)[O-])c(C)c([N+](=O)[O-])c1)c1ccc(OCOCC[Si](C)(C)C)cc1` (stereo unspecified), the concentration for half-maximal inhibition (IC50) is 103 µM.
On the same count and under the same terms, the figure for `O=C1c2ccccc2C(OCc2ccc(O)cc2)(c2ccccc2)N1Cc1ccccc1` (stereo unspecified) is 79 µM; for `O=C1c2ccccc2C(NCC(O)c2cccc(O)c2)(c2ccccc2)N1Cc1ccccc1` (stereo unspecified) it is 84 µM; for `O=C1c2ccccc2C(OCCOc2ccccc2O)(c2ccccc2)N1Cc1ccccc1` (stereo unspecified) it is 221 µM.
With `O=C(NCCOC1(c2ccccc2)c2ccccc2C(=O)N1Cc1ccccc1)c1ccc(O)cc1O` (stereo unspecified), the 50% inhibitory concentration (IC50) was determined as 96 µM.
The compound `CCCN1C(=O)c2ccccc2C1(OCCc1ccc(O)cc1)c1ccc(C(C)(C)C)cc1` (stereo unspecified) yielded an IC50 of 69.7 µM.
Take `O=Cc1ccc(COC2(c3ccccc3)c3ccccc3C(=O)N2Cc2ccccc2)o1` (stereo unspecified): the IC50 is 97 µM.
With `CN(CCOC1(c2ccccc2)c2ccccc2C(=O)N1Cc1ccccc1)c1ccc(C=O)cc1` (stereo unspecified), 191 µM corresponded to half-maximal inhibition (IC50).
As for `C[Si](C)(C)CCOCOc1ccc(C2(OCCCO)c3ccccc3C(=O)N2Cc2ccccc2)cc1` (stereo unspecified), the IC50 turned out to be 476 µM.
